Test: DPPH radical scavenging antioxidant test
Assay type: biochemical
Conditions: 517 nm; for Inhibition (radical scavenging inhibition): compound 3 μM in ethanol, 0.2 mL DPPH (0.75 mM), 30 min incubation in the dark
Experimental: The antioxidant properties of the 4,4′-naphthalene-1,5-diylbis(diazene-2,1-diyl)dibenzene-1,2-diol were studied by adding 0.2 mL DPPH (0.75 mM)) to compound 4,4′-naphthalene-1,5-diylbis(diazene-2,1-diyl)dibenzene-1,2-diol (III) (3 μM) in ethanol. After 30 min of incubation in the dark, the absorbance was read against a blank at 517 nm. Ascorbic acid (vitamin C) was used as standard antioxidants (positive control). A blank sample was prepared by 0.2 ml of DPPH in 3 ml ethanol. A negative control sample was run using ethanol instead of the sample. The radical scavenging inhibition was calculated using the following equation: […]

Row | SMILES | antioxidant potential (DPPH) compared to vitamin C (DPPH in vitro test, vitamin C as positive control) | Inhibition (radical scavenging inhibition)
1 | Oc1ccc(/N=N/c2cccc3c(/N=N/c4ccc(O)c(O)c4)cccc23)cc1O [Product III, 4,4′-naphthalene-1,5-diylbis(diazene-2,1-diyl)dibenzene-1,2-diol] | high potential as an antioxidant compared to vitamin C | 50%
2 | O=C1O[C@H]([C@@H](O)CO)C(O)=C1O [vit c, Ascorbic acid, reference compound] |  | 74%

Source: patent publication US11926576B1, “4,4′-naphthalene-1,5-diylbis(diazene-2,1-diyl)dibenzene-1,2-diol as an antioxidant compound” (KING FAISAL UNIVERSITY, priority 2023, dated 2024)
